According to patent EP1293213A1, “PREVENTIVES/REMEDIES FOR POSTOPERATIVE STRESS” (Japan Tobacco Inc., priority 2000, dated 2001):

Columns and labels:
[1] = system: adrenocorticotropic hormone (ACTH); assay: Test 1: Effects on a rise in releasing of ACTH caused by surgical stress; format: in vivo, mouse; settings: mice
Method: Test 1 Effects on a rise in releasing of stress hormone caused by surgical stress - effects on a rise in releasing of adrenocorticotropic hormone (ACTH)
Mice (ddY Slc male, 7 weeks of age) handled by being fastened up before the day of experiment were divided equally into groups according to their weights on the experimental day (the number of mouse in one group was 10). Mice were anesthetized by i.p. injection of 2.5mg/mouse pentobarbital Na (Nembutal(brand name), Dainihonseiyaku) and, 5 minutes later, the solvent(0.1N HCl/saline)alone or test medicine CP154,526HCl(0.3, 1 or 3 mg/kg)were intravenously injected into the tail veins of mice at a dose of 10ml/Kg weight of mouse. 10 minutes after injection, a midline incision was made in the abdomen and in about two minutes movable bowel was draped externally. Then 25 minutes after incision, 0.6ml of blood sample was collected from aorta abdominalis for 1 minute gradually by using prechilled syringes (needle size 25G) which were wetted with 100mM EDTA solution. Control mice not subjected to surgical stress were given medication by the injection of the solvent alone 5 minutes after anesthesia. […] Blood samples were centrifuged at 7,000 x g and 4°C for 20 minutes and the concentration of ACTH in supernatant was determined by IRMA method using Allegro ACTH kit (Nihon Medi+Physics Co., Ltd.). […]

corticosterone = assay: Test 2: Effects on a rise in releasing of corticosterone caused by surgical stress; format: in vivo, mouse; settings: mice
Method: Test 2 Effects on a rise in releasing of stress hormone caused by surgical stress - effects on a rise in releasing of corticosterone, adrenocortical hormone.
Mice (ddY Slc male, 7weeks of age) handled by being fastened up before the day of experiment were divided equally into groups according to their weights on the experimental day (the number of mouse in one group was 6 to 7). Mice were anesthetized by i.p. injections of 2.5mg/mouse pentobarbital Na(Nembutal(brand name)), Dainihonseiyaku) and, 20 minutes later, the solvent(0.1N HCl/saline) or test medicine CP154,526HCl(0.3, 1, 3 or 10 mg/kg) were intravenously injected into the tail veins of mice at a dose of 10ml/Kg weight of mouse. 5 Minutes after injection, a midline incision was made in the abdomen, and in about one to two minutes movable bowel was draped externally, and then, abdominal part was covered with wet absorbent cotton with saline to prevent from drying. In 30 minutes after incision, while the bowel was draped externally, mice were decapitated and blood samples were collected into siliconized tubes, prechilled on ice, which contained 20ul of 100mM EDTA. Blood samples were centrifuged at 7,000 x g and 4°C for 20 minutes and the supernatant was obtained. Negative control mice not subjected to surgical stress were decapitated and blood samples were collected in 35 minutes after injection of the solvent alone. […]

[2] = target: T1, CRF type I(CRF-I) receptor (Homo sapiens, UniProt P34998); assay: in vitro Binding Assay using membrane fraction of recombinant cell (6EF2B) expressing CRF receptor gene (SPA method); settings: 125I-Tyr0-human/rat CRF, membrane fraction of 6EF2B cells (derived from Hela cell), read-out: IC50(nM) [experiment 1]
T1 construct: expressed in transfected cells; membrane fraction
T1 sequence (P34998 24-415): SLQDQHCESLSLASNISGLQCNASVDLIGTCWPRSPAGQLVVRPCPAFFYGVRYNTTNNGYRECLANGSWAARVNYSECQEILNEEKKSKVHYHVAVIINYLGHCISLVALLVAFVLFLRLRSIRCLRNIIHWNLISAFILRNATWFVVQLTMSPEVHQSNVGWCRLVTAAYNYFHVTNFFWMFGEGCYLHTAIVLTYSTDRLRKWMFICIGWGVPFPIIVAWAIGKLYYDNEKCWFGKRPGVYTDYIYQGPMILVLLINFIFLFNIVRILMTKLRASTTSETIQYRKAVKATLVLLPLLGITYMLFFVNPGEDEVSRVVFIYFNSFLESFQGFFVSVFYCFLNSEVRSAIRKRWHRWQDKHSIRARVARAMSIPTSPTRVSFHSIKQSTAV
Method: Experiment 1 : in vitro Binding Assay using membrane fraction of recombinant cell (6EF2B) with expression of CRF receptor gene
Preparation of membrane fraction:
Recombinant cells 6EF2B (derived from Hela cell), which express CRF type I(CRF-I) receptor gene stably, were cultivated in Eagle's MEM medium(10%FCS, 400ug/ml G418.1/100 penicillin/streptomycin). After cultivation, cells were suspended in 50mM Tris-HCl (pH7.2) solution containing 1mM EDTA and incubated at 25°C for 15 to 30 minutes. After that, every step was carried out at 4°C. Treated cells were suspended in 50mM Tris-HCl(pH7.2) containing 10% sucrose and homogenized by a Polytron(PT10-35 model). This step of homogenization was carried out at 25,000 rpm for 15 to 20 seconds and repeated twice or three times. In the course of this step the homogenates were inspected under a microscope. Homogenates were centrifuged at 600 x g for 5 minutes and the supernatant was centrifuged again at 40,000 x g for 30 minutes. The obtained pellet was resuspended in 50mM Tris-HCl(10mM MgCl2, 2mM EGTA) and the suspension was centrifuged again at 40,000 x g for 30minutes. The obtained pellet was used for further experiments as membrane fraction. The membrane fraction was diluted with 50mM Tris-HCl(10mM MgCl2, 2mM EGTA, 0.1%BSA, 100 kallikrein units/ml aprotinin, 0.1mM bacitracin, pH7.2) to have the concentration of 1mg/ml and then stored at -80°C. DC protein assay kit (produced by Bio-RAD) was used to determine the protein concentration of the membrane fraction.
Binding Assay using CRF-I receptor by means of SPA method:
Compounds to be evaluated were stored at the concentration of 10mM in DMSO. […] The assay buffer consisted of 50mM Tris-HCl (pH7.7) containing 100mM NaCl, 5mM KCl, 2mM CaCl2, 0.1% BSA, 0.1% bacitracin, 0.05% FCS and 5% horse serum. The reactions were carried out in 96-well Optiplate(Packard) in which to 50ul of the test substance solution, were added 50ul of WGA-beads & membrane fraction (50 to 100ug membrane fraction/10mg beads/ml) pre-coupled by stirring (rotating with 10rpm) at room temperature for 2 hours on the day of experiment, and 100ul of 0.4nM ^125I-Tyr^0-human/rat CRF(NEX-216, Dupont NEN), to be made up 200ul as total volume, and the mixture was incubated at 25°C for 3 hours. By the way, the step of pre-coupling was carried out by using beads solution (20mg/ml) suspended in 50mM Tris-HCl buffer solution (pH7.2) and after stirring beads were washed twice with Tris-HCl buffer and once with assay buffer by centrifugation (3000 rpm, 5 minutes). In order to measure total binding and non-specific binding activity, assay buffer solution and 1uM(final conc.) cold human /rat CRF(C-3042; SIGMA) solution were used respectively in place of test substance solution. After incubation, the mixture was centrifuged at 23 °C, 2,500 rpm for 5 minutes and the scintillation was counted with Top Count (Packard). An influence of color quench was corrected by standard curve made by using tartrazine as a quencher. Evaluation of samples was carried out several times.

[3] = system: adrenocorticotropic hormone(ACTH); assay: Experiment 2: Model of surgical stress in mouse (inhibitory action of rise in releasing of ACTH); format: in vivo; settings: ddY male mice, intravenous, surgical stress (abdominal incision, bowel draped externally)
Method: Experiment 2: Model of surgical stress in mouse (Inhibitory action of rise in releasing of adrenocorticotropic hormone(ACTH))
(§1) ddY male mice(SLC, 7 to 8 weeks of age: weight 34 to 42g)were used for experiments. Mice were housed before use under controlled lighting condition (12hours light and 12hours dark cycle(lights on from 8:00 to 20:00) at 23±3 °C and 55±15% humidity, and maintained with basal diet and water ad labium. On the experimental day, mice were moved to experimental room and habituated before experiment for more than 1 hour. On the day before experiment, mice were previously handled (by being fastened up for 10 to 15 seconds like the case of i.p. injections) to habituate to the stress caused by handling.
Medicine and administration:
Test compound to be evaluated was dissolved in and diluted with physiological saline(Otsuka), 5% mannitol or 0.1N NaHCO3/saline. Then the test sample solution was given into veins of mice at a dose of 10ml/Kg body weight. The same solvent alone mentioned above was given into veins of control mice group at a dose of 10ml/Kg weight.
Mice were anesthetized by injection of pentobarbital Na (2.5mg/mouse i.p.) and after 15 minutes the solvent alone or the solution containing test sample to be evaluated were intravenously injected on the tails of mice at a dose of 10ml/ Kg weight of mouse. After more 10 minutes a midline incision was made in the abdomen and in two minutes bowel was draped externally. Then 2.5 minutes after incision 0.6ml of blood samples were collected from main vein abdominalis for 1 minute gradually by using prechilled syringes(needle size 25G), which were wetted with 100mM EDTA solution. Control mice not subjected to surgical stress were decapitated and blood samples were collected at 13 to 14 minutes after medication of solvent alone and to them added 20ul of 100mM EDTA. Blood samples collected were put into siliconized tubes and centrifuged at 10,000rpm and 4°C for 5 minutes. The concentration of ACTH in supernatant was determined by IRMA method using Allegro ACTH kit (Nihon Medi+Physics Co.,Ltd.). […]

corticosterone(CORT) = assay: Experiment 3: Model of surgical stress in mouse (inhibitory action of rise in releasing of CORT); format: in vivo; settings: ddY male mice, intravenous, blood 30 minutes after incision
Method: Experiment 3: Model of surgical stress in mouse (Inhibitory action of rise in releasing of corticosterone(CORT))
as §1, with “7” for “7 to 8”, “35” for “34”, “41g)were used.” for “42g)were used for experiments.”, “humidity 55±15%,” for “55±15% humidity,”, “day, after mice were weighted, diet was removed from mice just before experiments to eliminate the effects of food intake on experiments. Then,” for “day,”, “handling. Mice were divided into groups according to their weights on the experimental day.” for “handling.”
Medicine applied and method of administration: […]
Mice were anesthetized by injections of pentobarbital Na (2.5mg/mouse i.p.) and after 20 minutes the solvent alone or the solution containing test sample to be evaluated were intravenously injected into the tail veins of mice at a dose of 10ml/Kg weight. […]
The concentration of CORT was determined by using Corticosterone Double Antibody (RIA measurement kit of CORT; ICN Pharmaceuticals, Inc.). […]

| Compound | increase of ACTH concentration in plasma ([1]; i.v. 0.3, 1 or 3 mg/kg, surgical stress, dose-dependently (Fig. 1)) | dose showing statistically significant inhibitory action on increase of ACTH concentration in plasma ([1]; i.v., surgical stress (Fig. 1)) | increase of corticosterone concentration in plasma (corticosterone; i.v. 0.3, 1, 3 or 10 mg/kg, surgical stress, viscera exposed 30 minutes, dose-dependently (Fig. 2)) | dose showing statistically significant inhibitory action on increase of corticosterone concentration in plasma (corticosterone; i.v., surgical stress (Fig. 2)) | IC50 [2] [nM] | Inhibitory action on ACTH release (mg/kg) [experiment 2] [3] [mg/kg] | Inhibitory action on CORT release (mg/kg) [experiment 3] (corticosterone(CORT)) [mg/kg] |
| --- | --- | --- | --- | --- | --- | --- | --- |
| CCCCN(CC)c1nc(C)nc2c1c(C)cn2-c1c(C)cc(C)cc1C.Cl [CP-154,526 HCl, N-butyl-N-[2,5-dimethyl-7-(2,4,6-trimethylphenyl)-7H -pyrrolo[2,3-d]pyrimidine-4-yl]-N-ethylamine chloride] | inhibited | not less than 1 mg/Kg | inhibited | not less than 10 mg/Kg | – | – | – |
| CCc1cc(S(=O)(=O)N(CC)CC)cc(NC(=O)c2cc(Cl)c([O-])c(Cl)c2)c1OC.[K+] [Example 7, potassium 2,6-dichloro-4-(N-(3-ethyl-5-diethylsulfamoyl-2-methoxyphenyl)carbamoyl)phenoxide] | – | – | – | – | 263 | 10 to 30 | 10 to 30 |
